Measured values taken from patent publication US20250236841A1, “METHODS TO ENHANCE TUMOR IMMUNOGENICITY AND COMPOSITIONS FOR AUTOLOGOUS CANCER IMMUNOTHERAPEUTIC PRODUCTS USING MODIFIED TUMOR CELLS AND MODIFIED DENDRITIC CELLS” (AIVITA BIOMEDICAL, INC., priority 2017, published 2025).
Where a SMILES comes first, the peptide text is derived from it. The star is where a group is joined. Cbz = O=C(OCc1ccccc1)*; CH2F = FC*

Assays:
Type in all cases: cell-based
[1] = tested on: isolated live cancer cells; assay: culture with caspase inhibitor (Example 6); conditions: Z-VAD-fmk 5-50 μM throughout proliferation and augmentation phases
Procedure: Isolated live cancer cells are placed in tissue culture. The tissue culture medium is supplemented with the broad spectrum caspase inhibitor Z-VAD-fmk at a concentration of 5-50 μM. The caspase inhibitor is added at the initiation of cell culture and maintained throughout the proliferation and augmentation phases of culture.

[2] = tested on: established ovarian tumor line; assay: cell survival of ovarian tumor line culture exposed to proteasome inhibitor and/or caspase inhibitor
Procedure: To benefit from the increased antigen content that can be obtained through use of a proteasome inhibitor, but also avoid triggering apoptosis, the proteasome inhibitor can be used in conjunction with a caspase inhibitor. First, to find the concentration of the proteasome inhibitor that caused minimal cell death, a range of bortezomib dilutions were tested in vitro on an established ovarian tumor line after reaching 70-90% confluence. The cultures were maintained in a standard DMEM:F12 media with 5% FBS. Bortezomib was reconstituted in DMSO and added directly to the cultures in concentrations from 0.1 to 100 nM
A concentration of 20 μM was chosen for further experiments.
Then the sequential application of the caspase inhibitor and proteasome inhibitor was tested. The tumor cells were cultured in the presence of 20 μM caspase inhibitor Z-VAD-fmk for 24 hours and then the medium was exchanged for medium containing bortezomib and the cells culture for another 48 hours. Bortezomib was used at the lowest concentration of that induced cell death, 5 nM.
The simultaneous application of Bortezomib and Z-VAD-fmk was also tested using 1 nM Botezomib with either 1 or 20 μM Z-VAD-fmk.

[3] = tested on: isolated live cancer cells; assay: depletion of Wnt signaling ligands (Example 7); conditions: beta-methyl-cyclodextrin 0.5-20 mM, one half to 3 hours prior to the end of the augmentation phase
Procedure: Isolated live cancer cells are placed in tissue culture. One half to 3 hours prior to the end of the augmentation phase and preparation for DC loading, the tissue culture medium is supplemented with beta-methyl-cyclodextrin at a concentration of 0.5-20 mM. Cholesterol and Wnt ligands are depleted from the plasma membrane of the cancer cells.

[4] = tested on: isolated live cancer cells; assay: augmentation culture with proteasome inhibitors (Example 4); conditions: lactacystin 0.1-1 μM, epoxomicin 1-2 μM, and/or HMB 10-150 μg/mL; at least the last 24 hours prior to harvest
Procedure: Isolated live cancer cells are placed in tissue culture. The tissue culture medium is supplemented with lactacystin at a concentration of 0.1-1 μM, epoxomicin at a concentration of 1-2 μM, and/or HMB at a concentration of 10-150 μg/mL. The inhibitor can be present throughout the augmentation phase of culture, or a portion thereof, but at least the last 24 hours prior to harvest. Doses in the lower end of the stated ranges are appropriate for longer term exposure. Doses at the high end of the state ranges can be used in the last 24 hours of cultivation. The content of protein (including normal, mutated and misfolded proteins) in the cancer cells is increased.

[5] = tested on: MUC1; assay: antibody labeling and epifluorescence imaging of protein content, MUC1; conditions: bortezomib 0.1 nM to 1.0 nM, without caspase inhibitor (FIGS. 6 and 7)
Excerpt: (§1) To evaluate protein content, we queried two targets that are commonly found in cancers: CA125, which is typically specific for ovarian cancer, and MUC1, which is common in many types of cancer (for example, colon, breast, ovarian, lung and pancreatic). The proteins were labeled using antibodies conjugated with Alexa Fluor 488 (green; anti-MUC1) or 594 (red; anti-CA125). The cells were imaged with an epifluorescence microscope (Nikon) with pre-set parameters for exposure and magnification.

[6] = tested on: CA125; assay: antibody labeling and epifluorescence imaging of protein content, CA125; conditions: bortezomib 0.1 nM to 1.0 nM, without caspase inhibitor (FIGS. 6 and 7)
Excerpt: as §1

[7] = tested on: isolated live cancer cells; assay: augmentation culture with DNA methyltransferase inhibitor (Example 3); conditions: decitabine 100-500 nM throughout, or 1 μM-10 μM at beginning of augmentation phase
Procedure: Isolated live cancer cells are placed in tissue culture. The tissue culture medium is supplemented with decitabine from the beginning of the augmentation phase for not less than one hour and up to the entire augmentation phase depending on concentration. A concentration of 100-500 nM can be used throughout the augmentation phase of cultivation. Alternatively a higher concentration of 1 μM-10 μM can be used at beginning of the augmentation phase and then removed or reduced to the lower concentration.

[8] = tested on: isolated live cancer cells; assay: augmentation culture with histone deacetylase inhibitors (Example 2); conditions: 0.01 mM to 10 mM each in the medium during augmentation phase
Procedure: Isolated live cancer cells are placed in tissue culture. During an augmentation phase, the tissue culture medium is supplemented with valproic acid or phenylbutyrate, or both, each at a concentration of 0.01 mM to 10 mM each. The level of histone acetylation, mRNA transcription, and protein expression, including expression of TAA, all increase.

COC(=O)C[C@H](NC(=O)[C@H](C)NC(=O)[C@@H](NC(=O)OCc1ccccc1)C(C)C)C(=O)CF [Z-VAD-fmk] (Cbz-Val-Ala-Asp(OMe)-CH2F)
accumulation of proteins, including TAA [1]: accumulate to higher levels than in untreated cultures
viability of the cultured cancer cells [1]: maintaining a high degree of viability
effect on cell survival ([2]; Z-VAD-fmk 10-100 μM, without an apoptotic challenge): did not have an effect on cell survival

methyl-β-cyclodextrin [beta-methyl-cyclodextrin]
cholesterol and Wnt ligands of the plasma membrane of the cancer cells [3]: depleted

CC[C@H](C)[C@H](NC(=O)[C@H]([C@@H](C)CC)N(C)C(C)=O)C(=O)N[C@H](C(=O)N[C@@H](CC(C)C)C(=O)[C@@]1(C)CO1)[C@@H](C)O [epoxomicin]
content of protein (including normal, mutated and misfolded proteins) in the cancer cells [4]: increased

CC(C)C[C@H](NC(=O)[C@H](Cc1ccccc1)NC(=O)c1cnccn1)B(O)O [bortezomib]
abundance and content of MUC1 (mean fluorescence intensity, sum of labeled pixels) [5]: increase
effect on survival ([2]; below 1 nM bortezomib): did not have effect on survival
lowest concentration that induced cell death ([2]; bortezomib alone): 5 nM
cell survival ([2]; concentrations above 5 nM bortezomib, within 24 hours, DMEM:F12 with 5% FBS): all cells died
cell survival ([2]; from 5 nM to 1 nM bortezomib): cell survived proportional with decreasing concentration
abundance and content of CA125 (mean fluorescence intensity, sum of labeled pixels) [6]: increase

Nc1ncn([C@H]2C[C@H](O)[C@@H](CO)O2)c(=O)n1 [decitabine, 5-aza-2′-deoxycytidine]
expression of silenced germ line and tumor-specific antigens [7]: increased and becomes more uniform
hypermethylation [7]: reversed

CC(=O)N[C@@H](CSC(=O)[C@]1([C@@H](O)C(C)C)NC(=O)[C@H](C)[C@@H]1O)C(=O)O [lactacystin]
content of protein (including normal, mutated and misfolded proteins) in the cancer cells [4]: increased

CC(C)(O)CC(=O)O [HMB, beta-hydroxy beta-methylbutyrate]
content of protein (including normal, mutated and misfolded proteins) in the cancer cells [4]: increased

CCCC(CCC)C(=O)O [valproic acid]
level of histone acetylation, mRNA transcription, and protein expression, including expression of TAA [8]: increase
